Experimental data as given in article PMC12567349, “Design and Optimization of Spiro-Isatin-Thiazolidinone Hybrids with Promising Anticancer Activity” (Pharmaceuticals, 2025).

Experiments:
Assay type in all cases: cell-based
KB3-1 cells = assay: MTT assay, 72 h, KB3-1; settings: Homo sapiens, KB 3-1, mean ± SD
Protocol: (§1) The cytotoxic potential of the synthesized compounds was investigated using the MTT assay after 72 h incubation with a panel of human and murine cancer cell lines, including colorectal carcinoma (HCT116), estrogen receptor-positive breast adenocarcinoma (MCF-7), triple-negative breast adenocarcinoma (MDA-MB-231), epidermoid carcinoma (KB3-1), myeloid leukemia (K562), and glioblastoma (U373), and mouse breast carcinoma (4T1) cells. To assess the selectivity of the compounds, pseudo-normal cell lines—human keratinocytes (HaCaTs) and mouse fibroblasts (NIH3T3s)—were also tested under the same conditions.
(§2) Human breast adenocarcinoma cells of MCF-7 and MDA-MB-231 lines, human glioblastoma cells of U373 line, human chronic myelogenous leukemia cells of K562 line, human colorectal carcinoma cells of HCT116 line, and human epidermoid carcinoma cells of KB3-1 line were kindly donated by a Collection of the Institute for Cancer Research at Vienna Medical University (Vienna, Austria). Human keratinocytes of HaCaT line, murine breast carcinoma cells of 4T1 line, and murine fibroblasts of the NIH3T3 line were obtained from the Cell Collection of the R.E. Kavetsky Institute of Experimental Pathology, Oncology and Radiobiology of the National Academy of Sciences of Ukraine (Kyiv, Ukraine). MCF-7, MDA-MB-231, U373, K562, HaCaT, and NIH3T3 cells were cultured in DMEM medium (Sigma-Aldrich, Burlington, MA, USA) supplemented with 2 mM L-glutamine, 4500 mg/L glucose, and 1 mM sodium pyruvate. HCT116 and KB3-1 cells were maintained in RPMI-1640 medium supplemented with 2 mM L-glutamine (Sigma-Aldrich, USA). Both media were supplemented with 10% fetal bovine serum (Sigma-Aldrich, USA). All cell lines were incubated at 37 °C in a humidified atmosphere containing 5% CO2.
(§3) The substrate cells were seeded at a density of 5000 cells per 100 µL, while suspension K562 cells were seeded at 15,000 cells per 100 µL in 96-well plates and incubated overnight. Doxorubicin (Dox, Sigma-Aldrich, USA) was used as a reference drug. Studied substances were then added in 100 µL of culture medium, and the cells were further incubated for 72 h. Subsequently, 20 µL of MTT solution (5 mg/mL, Sigma-Aldrich, USA) was added to each well and incubated for 2–4 h. Formazan crystals were then solubilized by adding dimethyl sulfoxide (Sigma-Aldrich, USA). Absorbance was measured using a BioTek ELx800 Absorbance Reader (BioTek Instruments, Inc., Winooski, VT, USA). The results were analyzed and illustrated using GraphPad Prism (version 8.0.1; GraphPad Software, San Diego, CA, USA) and presented as a mean (M) ± standard deviation (SD). The IC50 values of the compounds were determined using nonlinear regression analysis in GraphPad Prism 10.4.2 [40].

NIH3T3 cells = assay: MTT assay, 72 h, NIH3T3 (pseudo-normal); settings: Mus musculus, mean ± SD
Protocol: as §1, §2, §3

MCF-7 cells = assay: MTT assay, 72 h, MCF-7; settings: Homo sapiens, MCF7, mean ± SD
Protocol: as §1, §2
as §3, with “Doxorubicin (Dox, Sigma-Aldrich, USA) was used as a reference drug.” left out

4T1 cells = assay: MTT assay, 72 h, 4T1; settings: Mus musculus, mean ± SD
Protocol: as §1, §2, §3

HaCaT cells = assay: MTT assay, 72 h, HaCaT (pseudo-normal); settings: Homo sapiens, mean ± SD
Protocol: as §1, §2, §3

HCT116 cells = assay: MTT assay, 72 h, HCT116; settings: Homo sapiens, HCT-116, mean ± SD
Protocol: as §1, §2, §3

U373 cells = assay: MTT assay, 72 h, U373; settings: Homo sapiens, U373 MG, mean ± SD
Protocol: as §1, §2, §3

K562 cells = assay: MTT assay, 72 h, K562; settings: Homo sapiens, mean ± SD
Protocol: as §1, §2, §3

MDA-MB-231 cells = assay: MTT assay, 72 h, MDA-MB-231; settings: Homo sapiens, mean ± SD
Protocol: as §1, §2, §3

| IC50 (MCF-7 cells) | IC50 (4T1 cells) | IC50 (HCT116 cells) | IC50 (K562 cells) | IC50 (MDA-MB-231 cells) | Compound | IC50 (KB3-1 cells) | IC50 (NIH3T3 cells) | IC50 (HaCaT cells) | IC50 (U373 cells) |
| --- | --- | --- | --- | --- | --- | --- | --- | --- | --- |
| 6 ± 0.28 µM | 5.66 ± 0.27 µM | > 100 µM | 74.35 ± 0.66 µM | 6.37 ± 0.11 µM | O=C1/C(=C/c2ccc(Cl)cc2)SC2(C(=O)Nc3ccc(Cl)cc32)N1c1ccc(Cl)cc1 (centres unmarked) [Compound 11, (Z)-5-Chloro-5′-(4-chlorobenzylidene)-3′-(4-chlorophenyl)spiro[indoline-3,2′-thiazolidine]-2,4′-dione] | 6.95 ± 0.14 µM | > 100 µM | 8.67 ± 0.49 µM | 66.9 ± 0.83 µM |
| > 100 µM | > 100 µM | > 100 µM | > 100 µM | > 100 µM | COc1ccc(N2C(=O)/C(=C/c3ccc(-c4ccccn4)cc3)SC23C(=O)Nc2ccc(Cl)cc23)cc1 (centres unmarked) [Compound 12, (Z)-5-Chloro-3′-(4-methoxyphenyl)-5′-(4-(pyridin-2-yl)benzylidene)spiro[indoline-3,2′-thiazolidine]-2,4′-dione] | 0.97 ± 0.11 µM | > 100 µM | > 100 µM | > 100 µM |
| > 100 µM | > 100 µM | 41.4 ± 0.62 µM | 5.55 ± 0.17 µM | > 100 µM | O=C1/C(=C/c2ccc(-c3ccccn3)cc2)SC2(C(=O)Nc3ccc(Cl)cc32)N1c1ccc(Cl)cc1 (centres unmarked) [Compound 13, (Z)-5-Chloro-3′-(4-chlorophenyl)-5′-(4-(pyridin-2-yl)benzylidene)spiro[indoline-3,2′-thiazolidine]-2,4′-dione] | 0.99 ± 0.08 µM | > 100 µM | > 100 µM | > 100 µM |
| 77.4 ± 2.9 µM | 46.6 ± 2.98 µM | > 100 µM | > 100 µM | 30.7 ± 0.45 µM | CC(C)(C)c1ccc(/C=C2\SC3(C(=O)Nc4ccc(Cl)cc43)N(c3ccc(Cl)cc3)C2=O)cc1 (centres unmarked) [Compound 15, (Z)-5′-(4-(Tert-butyl)benzylidene)-5-chloro-3′-(4-chlorophenyl)spiro[indoline-3,2′-thiazolidine]-2,4′-dione] | 9.77 ± 0.78 µM | 90.32 ± 0.68 µM | > 100 µM | 79.3 ± 1.31 µM |
| > 100 µM | 69 ± 5.11 µM | > 100 µM | > 100 µM | 53.27 ± 0.51 µM | CC(C)(C)c1ccc(/C=C2\SC3(C(=O)Nc4ccc(Br)cc43)N(c3ccc(Br)cc3)C2=O)cc1 (centres unmarked) [Compound 16, (Z)-5-Bromo-3′-(4-bromophenyl)-5′-(4-(tert-butyl)benzylidene)spiro[indoline-3,2′-thiazolidine]-2,4′-dione] | 29.5 ± 0.33 µM | > 100 µM | > 100 µM | > 100 µM |
|  | 0.73 ± 0.1 µM | 0.9 ± 0.11 µM | 0.95 ± 0.11 µM | 0.6 ± 0.08 µM | COc1cccc2c1C(=O)c1c(O)c3c(c(O)c1C2=O)C[C@@](O)(C(=O)CO)C[C@@H]3O[C@H]1C[C@H](N)[C@H](O)[C@H](C)O1 [Dox, Doxorubicin, reference compound] | 0.53 ± 0.08 µM | 0.63 ± 0.12 µM | 3.1 ± 0.18 µM | 0.35 ± 0.09 µM |

More lines, now with the values behind:

| Compound | IC50 (MCF-7 cells) | IC50 (4T1 cells) | IC50 (HCT116 cells) | IC50 (K562 cells) | IC50 (MDA-MB-231 cells) | IC50 (KB3-1 cells) | IC50 (NIH3T3 cells) | IC50 (HaCaT cells) | IC50 (U373 cells) |
| --- | --- | --- | --- | --- | --- | --- | --- | --- | --- |
| COc1ccc(N2C(=O)CSC23C(=O)Nc2ccc(Cl)cc23)cc1 (centres unmarked) [Compound 1, 5-Chloro-3′-(4-methoxyphenyl)spiro[indoline-3,2′-thiazolidine]-2,4′-dione] | > 100 µM | 89.4 ± 1.93 µM | > 100 µM | 71.8 ± 7.79 µM | 85.3 ± 1.15 µM | 62.3 ± 0.51 µM | 77.6 ± 1.82 µM | 96.7 ± 1.02 µM | 76.7 ± 0.54 µM |
| O=C1CSC2(C(=O)Nc3ccc(Cl)cc32)N1c1ccc(Cl)cc1 (centres unmarked) [Compound 2, 5-Chloro-3′-(4-chlorophenyl)spiro[indoline-3,2′-thiazolidine]-2,4′-dione] | 84.9 ± 6.51 µM | 73 ± 7.02 µM | > 100 µM | 9.96 ± 1.17 µM | 62.69 ± 0.22 µM | 51.77 ± 0.26 µM | 98.25 ± 0.64 µM | 82.8 ± 1.94 µM | 77.91 ± 0.56 µM |
| O=C1CSC2(C(=O)Nc3ccc(Br)cc32)N1c1ccc(Br)cc1 (centres unmarked) [Compound 3, 5-Bromo-3′-(4-bromophenyl)spiro[indoline-3,2′-thiazolidine]-2,4′-dione] | 64 ± 4.77 µM | 43.8 ± 1.76 µM | 88.9 ± 6.33 µM | 7.99 ± 0.12 µM | 56.5 ± 1.93 µM | 46.7 ± 0.54 µM | 82.9 ± 2.05 µM | 38.4 ± 0.77 µM | 49.4 ± 1.33 µM |
| O=C1CSC2(C(=O)Nc3ccc(F)cc32)N1Cc1ccccc1 (centres unmarked) [Compound 4, 3′-Benzyl-5-fluorospiro[indoline-3,2′-thiazolidine]-2,4′-dione] | > 100 µM | 91.8 ± 1.55 µM | > 100 µM | 88.8 ± 4.06 µM | 99.21 ± 0.41 µM | 60.2 ± 0.72 µM | > 100 µM | > 100 µM | 98.6 ± 1.92 µM |
| O=C1CSC2(C(=O)Nc3ccc(Cl)cc32)N1Cc1ccccc1 (centres unmarked) [Compound 5, 3′-Benzyl-5-chlorospiro[indoline-3,2′-thiazolidine]-2,4′-dione] | 42.6 ± 1.24 µM | 95.3 ± 1.07 µM | 92.8 ± 1.09 µM | 95.5 ± 2.64 µM | 68.79 ± 0.62 µM | 52.1 ± 0.67 µM | > 100 µM | > 100 µM | 76.2 ± 0.8 µM |
| COc1ccc(N2C(=O)/C(=C/C=C/c3ccccc3)SC23C(=O)Nc2ccc(Cl)cc23)cc1 (centres unmarked) [Compound 6, (Z)-5-Chloro-3′-(4-methoxyphenyl)-5′-((E)-3-phenylallylidene)spiro[indoline-3,2′-thiazolidine]-2,4′-dione] | 83.3 ± 6.03 µM | 68 ± 2.6 µM | > 100 µM | > 100 µM | 55.9 ± 5.67 µM | 45.23 ± 0.36 µM | > 100 µM | 85.3 ± 1.27 µM | 69.5 ± 0.9 µM |
| COc1ccc(N2C(=O)/C(=C/c3ccc(Cl)cc3)SC23C(=O)Nc2ccc(Cl)cc23)cc1 (centres unmarked) [Compound 7, (Z)-5-Chloro-5′-(4-chlorobenzylidene)-3′-(4-methoxyphenyl)spiro[indoline-3,2′-thiazolidine]-2,4′-dione] | 52.2 ± 2.15 µM | 29 ± 0.92 µM | > 100 µM | 27.7 ± 3.02 µM | 8.55 ± 0.06 µM | 17.2 ± 0.21 µM | 79.7 ± 0.93 µM | 8.63 ± 0.57 µM | 72.3 ± 0.8 µM |
| CCOc1ccc(/C=C2\SC3(C(=O)Nc4ccc(Cl)cc43)N(c3ccc(Cl)cc3)C2=O)cc1 (centres unmarked) [Compound 9, (Z)-5-Chloro-3′-(4-chlorophenyl)-5′-(4-ethoxybenzylidene)spiro[indoline-3,2′-thiazolidine]-2,4′-dione] | 74.5 ± 4.73 µM | 7.84 ± 0.49 µM | > 100 µM | 67.1 ± 0.7 µM | 7.89 ± 0.33 µM | 22.3 ± 1.17 µM | > 100 µM | > 100 µM | 98.22 ± 0.87 µM |
| O=C1/C(=C/c2ccc(N3CCOCC3)cc2)SC2(C(=O)Nc3ccc(Cl)cc32)N1c1ccc(Cl)cc1 (centres unmarked) [Compound 10, (Z)-5-Chloro-3′-(4-chlorophenyl)-5′-(4-morpholinobenzylidene)spiro[indoline-3,2′-thiazolidine]-2,4′-dione] | > 100 µM | > 100 µM | > 100 µM | > 100 µM | > 100 µM | 16.9 ± 0.86 µM | > 100 µM | > 100 µM | > 100 µM |
